Results as given in ChEMBL document CHEMBL3430912, “GSK Tres Cantos Anti-Kinetoplastid Screening (TCAKS) Data”.

Tests used:
[1] = GSK_TCAKS: pIC50 HepG2 human cell line viability assay using luminiscence. […] Seeding density was checked to ensure that new mono-layers were not more than 50% confluent at the time of harvesting. Cell suspension was added to 500 mL of the same medium at a final density of 1.2 * 10^5 cells/mL. This cell suspension was dispensed (25 uL, 3000 cells per well) into 384-well clear-bottom plates using a Multidrop Combi dispenser. Prior to addition of the cell suspension, the screening compounds (250 nL) were pre-dispensed into the plates with an Echo liquid handler. Plates were incubated for 48 h at 37C, 5% CO2. After incubation, plates equilibrated at room temperature for 30 min before proceeding to develop the luminescent signal. The signal developer, CellTiter-Glo Reagent, was allowed to equilibrate at room temperature for 30 min and added to the plates (25uL per well) using a Multidrop Combi dispenser. Plates were left for 10 min at room temperature for stabilization and then read using a ViewLux.; assay type: toxicity, cell-based
Trypanosoma cruzi [2] = test: (§1) GSK_TCAKS: pIC50 Trypanosoma cruzi Imaging: Infected Cells. […] Cells were then washed once with PBS before infection. T. cruzi trypomastigotes, collected at days 5 to 8 after infection from LLC-MK2 parasite infected cultures, were allowed to swim out for 4h at 37C from a centrifuged pellet (2,500 rpm/10 min/room temperature). Trypomastigotes were then collected and counted in a CASY Cell Counter. Trypomastigotes, in supplemented DMEM, were added to H9c2 cultures in a multiplicity of infection of 1 and incubated for 18 h. Cells were washed once with PBS before incubation of the infected H9c2 monolayer with trypsin (Life-Technologies) to detach cells from the flask. Cells were counted in a CASY Cell Counter using a 150 um capillary and their density set at 5 * 10^4 cells per mL in supplemented assay DMEM. Infected H9c2 were dispensed into 384-well poly-lysine coated assay plates at 50uL per well using a Multidrop Combi dispenser. After seeding them, the plates were incubated at 37C, 5% CO2 for 72h. Cultures were then fixed and stained by addition of 50 uL of a solution containing 8% formaldehyde and 4 uM DRAQ5 DNA dye (BioStatus, UK) per well. […] Five images were collected per well for reliable statistical analysis. Automated image analysis was performed with a script developed on Acapella High Content Imaging and Analysis Software (PerkinElmer). Output: percentage of infected cells per well as a second infection marker.; assay type: functional, organism-based, Rattus norvegicus; details: H9c2, 4 h
[3] = biological target: Sterol 14-alpha demethylase (Trypanosoma cruzi (strain CL Brener), UniProt Q7Z1V1); test: GSK_TCAKS: pIC50 CYP51 from Trypanosoma cruzi.; assay type: functional
Sequence of Sterol 14-alpha demethylase (Q7Z1V1 whole entry): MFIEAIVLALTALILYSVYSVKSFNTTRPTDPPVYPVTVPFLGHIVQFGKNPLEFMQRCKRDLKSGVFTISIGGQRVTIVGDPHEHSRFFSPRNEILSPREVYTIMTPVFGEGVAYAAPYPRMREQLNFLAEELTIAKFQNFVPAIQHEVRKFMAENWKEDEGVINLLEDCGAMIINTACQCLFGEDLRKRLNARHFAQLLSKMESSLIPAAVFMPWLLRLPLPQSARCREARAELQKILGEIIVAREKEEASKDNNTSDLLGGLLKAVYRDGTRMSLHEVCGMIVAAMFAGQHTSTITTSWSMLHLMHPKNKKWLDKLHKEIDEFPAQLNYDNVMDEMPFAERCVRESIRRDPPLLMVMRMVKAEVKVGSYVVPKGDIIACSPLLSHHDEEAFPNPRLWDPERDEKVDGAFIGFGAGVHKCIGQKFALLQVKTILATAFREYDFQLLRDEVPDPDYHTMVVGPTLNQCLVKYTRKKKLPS

Leishmania donovani [4] = test: (§2) GSK_TCAKS: pIC50 Leishmania donovani Imaging: Amastigotes/Macrophages. Assay plates (384-well) were prepared by adding 250nL of compound to each well. For single shot assay, the final compound concentration was 5 uM. […] Automated image analysis was performed with a script developed on Acapella High Content Imaging and Analysis Software (PerkinElmer). Output: Average number of amastigotes per macrophage cell were reported for each well.; assay type: functional, organism-based, Homo sapiens; details: THP-1
Leishmania donovani [5] = test: as §2, with “Infected Macrophages.” for “Amastigotes/Macrophages.”, “Percent” for “Average number”, “infected” for “amastigotes per”, “cells” for “cell”; assay type: functional, organism-based, Homo sapiens; details: THP-1
[6] = tested on: Trypanosoma brucei brucei; test: GSK_TCAKS: pIC50 Trypanosoma brucei viability assay using fluorescence intensity. Assay plates (1536-well) were prepared by dispensing 25nL of compound solution per well using an Echo acoustic dispenser (Labcyte).; assay type: functional, organism-based; details: Lister 427, 2 h
Leishmania donovani [7] = test: GSK_TCAKS: pIC50 Leishmania donovani viability assay using fluorescence intensity. Assay plates (1536-well) were prepared by adding 30nL per well of compound. For single shot assay, the final compound concentration was 5uM. […] Briefly, eGFP LdBOB axenic amastigotes were harvested, fixed and counted in a CASY cell counter (Roche-Applied Science). A final concentration of 1.5 * 10^5 cells per well were prepared in amastigote media containing 500 U/mL penicillin/streptomycin (Invitrogen) and 6uL was dispensed to each experimental well using a Multidrop Combi dispenser (Thermo Scientific). 6uL of assay media was dispensed to control columns used as reference for 100% compound response. Following incubation for 72 h at 37C, 5% CO2, 2 uL of resazurin was added to each well at a final concentration of 0.5 mM in phosphate buffered saline (PBS) with IGEPAL (Sigma-Aldrich), 0.05% (v/v).; assay type: functional, organism-based
Leishmania donovani [8] = test: as §2, with “THP-1 Host Macrophages.” for “Amastigotes/Macrophages.”, “THP-1” for “Average number of amastigotes per macrophage”, “cell count” for “cell”; assay type: functional, organism-based, Homo sapiens
[9] = tested on: Trypanosoma brucei brucei; test: GSK_TCAKS: pIC50 Trypanosoma brucei viability assay using luminiscence. Assay plates (1536-well) were prepared. T. brucei cultures were harvested and counted in a CASY cell counter. A parasite suspension was prepared at a final concentration of 5 * 10^4 cells/mL in complete HMI9 medium and 6uL was dispensed to all wells containing compounds using a Multidrop Combi dispenser. 6uL of HMI9 media with 0.4% DMSO were dispensed to control columns. Plates were incubated for 24 h at 37C, 5% CO2 then tempered for 10 min at room temperature. ATP content was quantified by adding 4 uL of CellTiter-Glo Reagent (Promega) according to the manufacturer's instructions. Luminescence was measured using a ViewLux.; assay type: functional, organism-based; details: Lister 427, CASY
Trypanosoma cruzi [10] = test: GSK_TCAKS: pIC50 Trypanosoma cruzi Imaging: Amastigotes/Cell. […] Cells were then washed once with PBS before infection. T. cruzi trypomastigotes, collected at days 5 to 8 after infection from LLC-MK2 parasite infected cultures, were allowed to swim out for 4h at 37C from a centrifuged pellet (2,500 rpm/10 min/room temperature). Trypomastigotes were then collected and counted in a CASY Cell Counter. Trypomastigotes, in supplemented DMEM, were added to H9c2 cultures in a multiplicity of infection of 1 and incubated for 18 h. Cells were washed once with PBS before incubation of the infected H9c2 monolayer with trypsin (Life-Technologies) to detach cells from the flask. Cells were counted in a CASY Cell Counter using a 150 um capillary and their density set at 5 * 10^4 cells per mL in supplemented assay DMEM. Infected H9c2 were dispensed into 384-well poly-lysine coated assay plates at 50uL per well using a Multidrop Combi dispenser. After seeding them, the plates were incubated at 37C, 5% CO2 for 72h. Cultures were then fixed and stained by addition of 50 uL of a solution containing 8% formaldehyde and 4 uM DRAQ5 DNA dye (BioStatus, UK) per well. […] Five images were collected per well for reliable statistical analysis. Automated image analysis was performed with a script developed on Acapella High Content Imaging and Analysis Software (PerkinElmer). Output: number of amastigotes per cell as infection level measurement.; assay type: functional, organism-based, Rattus norvegicus; details: H9c2, 4 h
Trypanosoma cruzi [11] = test: as §1, with “H2C9” for “Trypanosoma cruzi”, “H9c2 Host Cardiomyocytes.” for “Infected Cells.”, “Number” for “percentage”, “H9c2 Host Cardiomyocytes nuclei to determine drug-related cytotoxicity.” for “infected cells per well as a second infection marker.”; assay type: functional, organism-based, Rattus norvegicus; details: H9c2, 4 h
Trypanosoma cruzi [12] = test: GSK_TCAKS: pIC50 Trypanosoma cruzi viability assay using beta-GAL activity. This assay was run at single shot at 5uM compound concentration per well. The biological reagents consisted of NIH-3T3 host cells and trypomastigotes parasitic cells; both cell types were set to a 3.3 * 10^5 cells/mL dilution in assay DMEM by means of a CASY cell counter device using a 60um capillary. 6 uL of the mixture were dispensed per well (about 1 * 10^3 host-cells and 1 * 10^3 parasites) with a Multidrop Combi dispenser. […] In all wells, the percentage of DMSO never exceeded 0.5%. Plates incubated for four days at 37C, 5% CO2. The substrate used for the assay fluorescence intensity (FLINT) readout was resorufin-beta-D-galactopiranoside (Sigma-Aldrich) at 5uM per well. It was diluted in PBS supplemented with the soft detergent Igepal (Fluka).; assay type: functional, organism-based, Mus musculus; details: Tulahuen, NIH3T3

Row | SMILES | IC50 at 48 h [1] [µM] | IC50 (Trypanosoma cruzi [2]) [µM] | IC50 [3] [µM] | IC50 (Leishmania donovani [4]) [µM] | IC50 (Leishmania donovani [5]) [µM] | IC50 [6] [µM] | IC50 (Leishmania donovani [7]) [µM] | IC50 (Leishmania donovani [8]) [µM] | IC50 [9] [µM] | IC50 (Trypanosoma cruzi [10]) [µM] | IC50 (Trypanosoma cruzi [11]) [µM] | IC50 (Trypanosoma cruzi [12]) [µM]
1 | Oc1cc(CSc2ccc(Cl)cc2)nc(-c2ccccn2)n1 | > 100 | 1.58 | 63.1 | 2 | 5.01 | 0.794 | 1.58 | 3.98 | 1 | 0.794 | 3.16 | 1
2 | CCc1c(C)nc(-n2nc(C)cc2NC(=O)COc2ccccc2F)[nH]c1=O | > 100 | 0.631 | > 100 | 5.01 | 7.94 | 0.158 | 0.126 | 3.98 | 0.2 | 0.158 | 2.51 | 0.631
3 | COc1ccc(C(=O)[C@H]2C[C@@H]2CN(Cc2ccccn2)Cc2ccccn2)cc1 | > 100 | 1.58 | 39.8 | 1.26 | 1.58 | 6.31 | 7.94 | > 50.1 | 15.8 | 1 | 25.1 | 1.58
4 | CCS(=O)(=O)c1cccc(C(=O)Nc2nc(-c3ccccn3)cs2)c1 | 25.1 | 2.51 | 63.1 | 3.16 | 3.98 | 0.501 | 1.26 | 20 | 0.631 | 1.58 | 3.98 | 1.58
5 | COc1cc2c(cc1OC)[C@H]1[C@@H](C)c3ccc(OC)c(OC)c3CN1CC2 | > 100 | > 50.1 | 79.4 | 15.8 | 20 | 25.1 | 2.51 | > 50.1 | > 39.8 | 20 | > 50.1 | 25.1
6 | CCc1cccc(-n2nc(OCC(=O)NC3CCCC3)c3cccnc32)c1 | > 100 | > 50.1 | > 100 | 1.26 | 1 | > 39.8 | 2.51 | > 50.1 | > 39.8 | > 50.1 | > 50.1 | > 50.1
7 | O=[N+]([O-])c1ccc(-c2nnn(-c3cccnc3)n2)o1 | > 100 | > 50.1 | 3.98 | 50.1 | > 50.1 | 0.316 | 15.8 | 12.6 | 0.501 | 0.0631 | 6.31 | 0.251
8 | O=[N+]([O-])c1ccc(-c2nnn(-c3ccc(Cl)cc3)n2)o1 | > 100 | 0.794 | > 100 | > 50.1 | > 50.1 | 0.316 | 6.31 | > 50.1 | 1 | 0.0794 | 10 | 0.251
9 | COCc1cc(Nc2ccc(Cl)cc2)nc(-c2ccccn2)n1 | 12.6 | 5.01 | > 100 | 0.794 | 1.26 | 20 | 2.51 | 20 | > 39.8 | 2.51 | 1.26 | 1.58
10 | COCc1cc(Nc2ccccc2)nc(-c2ccccn2)n1 | 100 | 25.1 | > 100 | 5.01 | 7.94 | > 39.8 | 7.94 | > 50.1 | > 39.8 | 12.6 | 3.98 | 5.01
11 | CNC(=O)Oc1ccc(C(=O)NCc2ccccc2)cc1OC(=O)NC | > 100 | 39.8 | > 100 | > 50.1 | > 50.1 | 0.126 | > 50.1 | > 50.1 | 0.398 | 39.8 | > 50.1 | 31.6
12 | CC(C)(C)Nc1nc(Nc2ccc3c(c2)CS(=O)(=O)C3)nc2[nH]ccc12 | 31.6 | 31.6 | 25.1 | 5.01 | 6.31 | 0.794 | 7.94 | 20 | 5.01 | 20 | 1 | 1
13 | COc1ccc(CN2C(=O)C(O)(CC(=O)c3ccncc3)c3cc(Br)ccc32)cc1OC (centres undefined) | 39.8 | 25.1 | 0.501 | 20 | 25.1 | 0.631 | 39.8 | 39.8 | 0.631 | 12.6 | 2 | 2.51
14 | CNC(=O)C1Cc2ccccc2N1C(=O)Cc1ccc(F)cc1 (centres undefined) | > 100 | > 50.1 | > 100 | > 50.1 | > 50.1 | 0.251 | – | > 50.1 | 0.251 | > 50.1 | > 50.1 | > 50.1
15 | CC(C)CC(=O)Nc1cc(C2CC2)nn1-c1nc2c(c(=O)[nH]1)CCCC2 | > 100 | 0.501 | > 100 | 5.01 | 7.94 | 0.2 | – | 5.01 | 0.2 | 0.126 | 2.51 | 0.794
16 | Cc1ccc(NC(C)C(=O)Nc2ccc(C#N)cc2)cc1S(=O)(=O)N1CCCCC1 (centres undefined) | 79.4 | 7.94 | 15.8 | 5.01 | 10 | 7.94 | 0.794 | 50.1 | 10 | 7.94 | > 50.1 | 10
17 | O=C(Nc1ccc(C(F)(F)F)cc1)Nc1cccc([N+](=O)[O-])c1 | 10 | 1.26 | 6.31 | 2 | 2.51 | 2 | 7.94 | 6.31 | 2 | 0.794 | 5.01 | 1
18 | CC(C)(C)c1cc(NC2CC2)nc(-c2ccccn2)n1 | > 100 | 1.58 | > 100 | 1.58 | 2.51 | 7.94 | 1.58 | 25.1 | 2.51 | 1.26 | 0.316 | 1.26
